Results on six compounds are retold here after US6403633B2, “Heteroaryl amidines, methylamidines and guanidines, and use thereof as protease inhibitors” (3-Dimensional Pharmaceuticals, Inc., priority 1998, dated 2002).

pKi: −log10 of the molar value. Structures can show the parent of a compound that is named as a salt.

One may read the pKi as −log10 of the Ki, conventionally taken in molar units. Read a low pKi as a large Ki.

What all share (assay type): biochemical
One test deals with T1, C1S (Homo sapiens, UniProt P09871).
T1 sequence (P09871 16-688): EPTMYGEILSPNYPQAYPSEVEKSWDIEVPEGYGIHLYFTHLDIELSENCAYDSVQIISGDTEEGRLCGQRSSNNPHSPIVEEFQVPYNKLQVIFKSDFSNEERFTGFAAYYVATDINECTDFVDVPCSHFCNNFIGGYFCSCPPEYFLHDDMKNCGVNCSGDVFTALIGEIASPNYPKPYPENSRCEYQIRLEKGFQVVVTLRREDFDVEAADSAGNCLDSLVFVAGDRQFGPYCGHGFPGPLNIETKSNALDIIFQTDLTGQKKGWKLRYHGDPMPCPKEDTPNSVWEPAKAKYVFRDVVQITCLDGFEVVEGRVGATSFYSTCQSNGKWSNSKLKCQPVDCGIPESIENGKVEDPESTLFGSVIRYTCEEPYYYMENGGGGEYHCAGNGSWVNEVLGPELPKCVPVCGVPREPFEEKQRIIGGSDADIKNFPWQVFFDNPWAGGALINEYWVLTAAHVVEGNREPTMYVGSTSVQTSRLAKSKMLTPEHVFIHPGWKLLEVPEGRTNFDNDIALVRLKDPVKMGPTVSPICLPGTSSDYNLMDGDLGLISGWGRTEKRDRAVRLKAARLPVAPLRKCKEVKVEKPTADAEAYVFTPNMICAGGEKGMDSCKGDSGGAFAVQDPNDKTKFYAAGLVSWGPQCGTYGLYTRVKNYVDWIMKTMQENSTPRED
Nature of the test: In vitro inhibition of purified enzymes, Ki determination: C1S. The settings on record: no enzyme-specific conditions printed. An excerpt: (§1) Human α-thrombin, human factor Xa and human plasmin were obtained from Enzyme Research Laboratories (South Bend, Ind.). Bovine α-chymotrypsin (Sigma C4129), bovine trypsin (Sigma T8642) and human kidney cell urokinase (Sigma U5004) were obtained from Sigma. Human leukocyte elastase was obtained from Elastin Products (Pacific, Mo.). Ki Determinations: All assays are based on the ability of the test compound to inhibit the enzyme catalyzed hydrolysis of a peptide p-nitroanilide substrate. […] The final concentrations for each of the substrates is listed below. In general, substrate concentrations are lower than the experimentally determined value for Km. […]
(§2) In a typical Ki determination, into each well of a 96 well plate is pipetted 280 μL of substrate solution, 10 μL of test compound solution, and the plate allowed to thermally equilibrate at 37° C. in a Molecular Devices plate reader for >15 minutes. Reactions were initiated by the addition of a 10 μL aliquot of enzyme and the absorbance increase at 405 nm is recorded for 15 minutes. […] The ratio of the velocity (rate of change in absorbance as a function of time) for a sample containing no test compound is divided by the velocity of a sample containing test compound, and is plotted as a function of test compound concentration. The data are fit to a linear regression, and the value of the slope of the line calculated. […]

Another test has as its target tPA (Homo sapiens, UniProt P00750). The test can be described thus: In vitro inhibition of purified enzymes, Ki determination: tPA. The settings on record: no enzyme-specific conditions printed.
Source text: as §1, §2

The target of another test is T2, Bovine α-chymotrypsin (Bos taurus, UniProt P00766).
T2 construct: purchased Sigma C4129
Nature of the test: In vitro inhibition of purified enzymes, Ki determination: chymotrypsin. The settings on record: substrate N-succinyl-Ala-Ala-Pro-Phe-p-nitroanilide 14 μM, [Chymotrypsin]=2.7 nM, pH 7.5, 37° C. An excerpt: (§3) Reagents: All buffer salts were obtained from Sigma Chemical Company (St. Louis, Mo.), and were of the highest purity available. The enzyme substrates, N-benzoyl-Phe-Val-Arg-p-nitroanilide (Sigma B7632), N-benzoyl-Ile-Glu-Gly-Arg-p-nitroanilide hydrochloride (Sigma B2291), N-p-tosyl-Gly-Pro-Lys-p-nitroanilide (Sigma T6140), N-succinyl-Ala-Ala-Pro-Phe-p-nitroanilide (Sigma S7388) and N-CBZ-Val-Gly-Arg-p-nitroanilide (Sigma C7271) were obtained from Sigma. N-Succinyl-Ala-Ala-Pro-Arg-p-nitroanilide (BACHEM L-1720) and N-succinyl-Ala-Ala-Pro-Val-p-nitroanilide (BACHEM L-1770) were obtained from BACHEM (King of Prussia, Pa).
(§4) Human α-thrombin, human factor Xa and human plasmin were obtained from Enzyme Research Laboratories (South Bend, Ind.). […] In general, substrate concentrations are lower than the experimentally determined value for Km. […]
(§5) In a typical Ki determination, into each well of a 96 well plate is pipetted 280 μL of substrate solution, 10 μL of test compound solution, and the plate allowed to thermally equilibrate at 37° C. in a Molecular Devices plate reader for >15 minutes. Reactions were initiated by the addition of a 10 μL aliquot of enzyme and the absorbance increase at 405 nm is recorded for 15 minutes. […] The data are fit to a linear regression, and the value of the slope of the line calculated. The inverse of the slope is the experimentally determined Ki value. […]

Another test has as its target T3, human plasmin (Homo sapiens, UniProt P00747).
T3 construct: purchased Enzyme Research Laboratories
The test can be described thus: In vitro inhibition of purified enzymes, Ki determination: plasmin. The settings on record: substrate N-p-Tosyl-Gly-Pro-Lys-p-nitroanilide 37 μM, [Plasmin]=8 nM, pH 7.5, 37° C.
Source text: as §3, §4, §5

The target in a further test is T4, human factor Xa (Homo sapiens, UniProt P00742).
T4 construct: purchased Enzyme Research Laboratories
T4 sequence (P00742 235-488 limits assumed): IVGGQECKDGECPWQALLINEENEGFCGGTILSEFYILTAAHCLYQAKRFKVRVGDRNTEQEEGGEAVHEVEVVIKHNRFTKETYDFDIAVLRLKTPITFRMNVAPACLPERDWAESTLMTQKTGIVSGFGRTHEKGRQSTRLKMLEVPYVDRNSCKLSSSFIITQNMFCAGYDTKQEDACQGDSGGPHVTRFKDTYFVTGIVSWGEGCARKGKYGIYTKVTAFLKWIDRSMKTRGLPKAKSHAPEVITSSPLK
T4 sequence (P00742 41-179 partner limits assumed): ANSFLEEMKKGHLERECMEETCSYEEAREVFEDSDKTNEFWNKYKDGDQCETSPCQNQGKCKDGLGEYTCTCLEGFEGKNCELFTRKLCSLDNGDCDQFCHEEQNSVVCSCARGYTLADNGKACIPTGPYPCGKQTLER
Nature of the test: In vitro inhibition of purified enzymes, Ki determination: Factor Xa. The settings on record: substrate N-benzoyl-Ile-Glu-Gly-Arg-p-nitroanilide hydrochloride 51 μM, [FXa]=10 nM, pH 7.5, 37° C.
Source text: as §3, §4, §5

T3 sequence (P00747 581-810 limits assumed): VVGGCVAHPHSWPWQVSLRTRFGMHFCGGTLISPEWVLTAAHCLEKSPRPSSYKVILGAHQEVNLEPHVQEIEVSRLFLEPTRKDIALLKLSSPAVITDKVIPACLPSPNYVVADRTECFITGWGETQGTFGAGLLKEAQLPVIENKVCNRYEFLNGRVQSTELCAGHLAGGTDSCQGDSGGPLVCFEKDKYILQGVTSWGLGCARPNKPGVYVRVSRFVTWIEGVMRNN
T3 sequence (P00747 97-580 partner limits assumed): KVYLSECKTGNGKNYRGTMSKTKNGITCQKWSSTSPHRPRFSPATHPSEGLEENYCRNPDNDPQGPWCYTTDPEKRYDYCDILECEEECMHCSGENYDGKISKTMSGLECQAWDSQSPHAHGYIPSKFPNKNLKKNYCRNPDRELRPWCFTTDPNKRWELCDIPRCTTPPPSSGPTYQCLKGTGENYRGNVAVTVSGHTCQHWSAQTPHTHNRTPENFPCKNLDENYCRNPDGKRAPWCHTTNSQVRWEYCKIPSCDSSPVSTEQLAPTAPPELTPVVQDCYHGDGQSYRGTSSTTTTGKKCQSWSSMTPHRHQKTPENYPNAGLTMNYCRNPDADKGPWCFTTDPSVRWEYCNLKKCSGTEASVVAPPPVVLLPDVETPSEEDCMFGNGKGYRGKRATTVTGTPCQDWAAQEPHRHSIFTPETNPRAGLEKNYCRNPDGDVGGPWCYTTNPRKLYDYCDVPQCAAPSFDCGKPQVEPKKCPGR
Sequence of tPA (P00750 36-562, species assumed): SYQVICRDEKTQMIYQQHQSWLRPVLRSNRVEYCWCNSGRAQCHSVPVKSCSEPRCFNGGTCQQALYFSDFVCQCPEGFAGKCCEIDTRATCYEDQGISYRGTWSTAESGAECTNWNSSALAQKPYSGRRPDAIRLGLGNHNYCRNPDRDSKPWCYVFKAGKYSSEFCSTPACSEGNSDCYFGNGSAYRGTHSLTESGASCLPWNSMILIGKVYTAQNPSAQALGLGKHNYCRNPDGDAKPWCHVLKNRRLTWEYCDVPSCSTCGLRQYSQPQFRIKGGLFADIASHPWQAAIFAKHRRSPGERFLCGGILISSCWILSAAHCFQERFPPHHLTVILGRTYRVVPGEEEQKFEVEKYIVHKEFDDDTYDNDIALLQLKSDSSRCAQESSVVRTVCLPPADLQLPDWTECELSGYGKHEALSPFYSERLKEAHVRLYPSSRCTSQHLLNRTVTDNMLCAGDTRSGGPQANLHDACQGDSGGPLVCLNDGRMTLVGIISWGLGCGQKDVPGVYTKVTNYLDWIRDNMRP

“4-[Bis(phenylsulfonyl)amino]-5-methylthiophene-2-carboxamidine [Example 283]” gave a pKi on C1S of 6.03. Take `CSc1sc(C(=N)N)cc1-c1nc(-c2ccc(Cl)cc2)cs1` [Example 1, 4-[4-(4-chlorophenyl)(1,3-thiazol-2-yl)]-5-methylthiothiophene-2-carboxamidine]: the pKi at tPA was 5.02. The compound `CSc1sc(C(=N)N)cc1-c1nc(-c2ccc([N+](=O)[O-])cc2)cs1` [Example 11, 5-Methylthio-4-[4-(4-nitrophenyl)(1,3-thiazol-2-yl)]thiophene-2-carboxamidine hydrochloride] gave a pKi on Bovine α-chymotrypsin of 5.31.

As for `CSc1sc(C(=N)N)cc1-c1nc(-c2ccc3c(c2)OCCO3)cs1` [Example 12, 4-[4-(3,4-Ethylenedioxyphenyl)thiazol-2-yl]-5-methylthiothiophene-2-carboxamidine hydrochloride], the pKi on human plasmin is 5.14. `CSc1sc(C(N)=NC#N)cc1-c1nc(-c2ccccc2)cs1` [Example 94, 3-Amino-2-aza-3-[5-methylthio-4-(4-phenyl(1,3-thiazol-2-yl))(2-thienyl)]prop-2-enenitrile] gave a pKi on human factor Xa of 5.56.

With `CSc1sc(C(=N)N)cc1-c1nc(-c2sc3ccccc3c2Cl)cs1` [Example 119, 4-[4-(3-chlorobenzo[b]thiophen-2-yl)(1,3-thiazol-2-yl)]-5-methylthiothiophene-2-carboxamidine hydrochloride], the pKi on human factor Xa is 5.52.
